Experimental data taken from paper PMC5384001 (Scientific Reports, 2017).

Target: T1, GluD2-Lc(D542Y)-(HS2)GluN1 (Rattus norvegicus, UniProt Q63226, A654T/A766F/D542Y/D767R/N763E/R768S/T764L/V761T/V765F)
T1 construct: the function of full-length receptors as well, we introduced them into the GluD2 lurcher mutant (GluD2-Lc); expressed in transfected cells; host or cells: Xenopus laevis oocytes injected with cRNA
T1 sequence (Q63226 24-1007 D542Y/A654T/V761T/N763E/T764L/V765F/A766F/D767R/R768S): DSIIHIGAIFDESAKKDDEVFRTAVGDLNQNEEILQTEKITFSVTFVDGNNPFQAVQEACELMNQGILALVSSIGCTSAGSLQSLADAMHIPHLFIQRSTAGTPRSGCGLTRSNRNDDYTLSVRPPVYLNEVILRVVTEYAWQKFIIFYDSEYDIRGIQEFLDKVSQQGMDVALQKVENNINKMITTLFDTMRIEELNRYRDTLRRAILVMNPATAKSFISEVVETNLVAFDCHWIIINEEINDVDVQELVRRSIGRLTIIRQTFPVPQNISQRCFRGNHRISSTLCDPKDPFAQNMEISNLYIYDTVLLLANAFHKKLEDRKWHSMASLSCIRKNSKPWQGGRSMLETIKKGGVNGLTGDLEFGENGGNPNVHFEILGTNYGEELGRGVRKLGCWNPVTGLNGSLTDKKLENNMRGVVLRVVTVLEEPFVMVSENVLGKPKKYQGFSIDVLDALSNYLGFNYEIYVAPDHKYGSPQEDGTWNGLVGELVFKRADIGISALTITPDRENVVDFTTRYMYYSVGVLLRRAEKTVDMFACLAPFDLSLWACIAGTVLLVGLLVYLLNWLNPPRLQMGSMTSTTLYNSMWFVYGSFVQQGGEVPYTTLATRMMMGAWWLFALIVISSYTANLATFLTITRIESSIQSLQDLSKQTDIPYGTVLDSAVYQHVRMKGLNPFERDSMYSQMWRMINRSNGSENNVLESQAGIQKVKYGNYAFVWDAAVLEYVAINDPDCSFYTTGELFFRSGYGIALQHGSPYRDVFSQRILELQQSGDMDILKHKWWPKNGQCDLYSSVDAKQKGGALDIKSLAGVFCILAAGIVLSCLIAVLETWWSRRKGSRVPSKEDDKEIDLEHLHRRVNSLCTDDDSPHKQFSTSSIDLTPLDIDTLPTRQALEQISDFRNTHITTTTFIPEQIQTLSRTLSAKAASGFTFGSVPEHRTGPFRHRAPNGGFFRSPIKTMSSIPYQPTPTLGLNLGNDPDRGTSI
Test: Two-electrode voltage clamp in Xenopus oocytes, inhibition of spontaneous currents
Assay type: cell-based
From the text: All cDNAs for expression in Xenopus oocytes were cloned into the vector pSGEM[30]. Point mutants of GluD2-Lc were constructed by overlap extension PCR with mutagenic oligonucleotide primers. The GluD2-Lc-(H)GluN1 chimera was constructed by transferring the S1- and S2-encoding sequences from GluD2-LBD-(H)GluN1 to GluD2-Lc via overlap extension PCR using tail primers. The S1 and S2 sequences were transferred separately, yielding GluD2-Lc-(HS1)GluN1 and GluD2-Lc-(HS2)GluN1 constructs. GluD2-Lc-(H)GluN1 was then produced from these by another overlap extension PCR. Complementary RNA (cRNA) for injection into oocytes was synthesised from 1 μg of linearised template DNA with the mMESSAGE mMACHINE in vitro transcription kit (Ambion, Austin, TX, USA).
Oocytes were obtained by surgically removing parts of the ovaries from Xenopus laevis (Nasco, Fort Atkinson, WI, USA) anaesthetised with 1.5 g/L 3-aminobenzoic acid ethylester (Sigma, Taufkirchen, Germany). The ovary clippings were digested with 784 U/mL (4 mg/mL) collagenase type I (Worthington, Lakewood, NJ, USA) in Ca^2+-free Barth’s solution (88 mM NaCl, 1.1 mM KCl, 2.4 mM NaHCO3, 0.8 mM MgSO4, 15 mM HEPES-NaOH, pH 7.6) with gentle agitation for 1.5–2 h at 20 °C to remove the follicular cell layer. After stopping the collagenase digestion by washing with Barth’s solution (88 mM NaCl, 1.1 mM KCl, 2.4 mM NaHCO3, 0.3 mM Ca(NO3)2, 0.4 mM CaCl2, 0.8 mM MgSO4, 15 mM HEPES-NaOH, pH 7.6), defolliculated oocytes of stages V and VI were selected and maintained at 16 °C in Barth’s solution supplemented with 100 μg/mL gentamicin, 40 μg/mL streptomycin, and 63 μg/mL penicillin. Oocytes were injected with 11 ng cRNA (10 ng of each cRNA for co-expression of GluN1 and GluN2A) using a nanoliter injector (WPI, Sarasota, FL, USA). Four days after cRNA injection, current responses were recorded under voltage clamp at –70 mV with a Turbo Tec-10CD amplifier (npi electronic, Tamm, Germany) controlled by Patchmaster software (HEKA, Lambrecht, Germany). Currents were filtered with a 20 Hz low-pass filter and then digitised with a sampling rate of 50 Hz. Recording electrodes were pulled from borosilicate glass (Hilgenberg, Malsfeld, Germany) with an L/M-3P-A vertical pipette puller (List-Medical), filled with 3 M KCl, and had resistances of 0.5–5 MΩ (voltage electrode) or 0.5–1.5 MΩ (current electrode). Recordings were performed in a 50 μL chamber under constant superfusion with extracellular solution at a flow rate of 3–5 mL/min. […] Finally, Ba-NFR and then NMDGR were applied again to check for reversibility.

## N[C@H](CO)C(=O)O [D-serine]
Fraction of spontaneous current inhibited by D-serine
  D-serine efficacy Mean ± SEM: –3.4 ± 0.5%
Inhibition of spontaneous currents
  sensitivity to D-serine: insensitive
